These results are taken from ChEMBL document CHEMBL1201862, “PubChem BioAssay data set” (2004).

One assay has as its target Genome polyprotein (dengue virus type 2, UniProt P29990). Put plainly: flavivirus cap methylation enzyme inhibition – biochemical, confirmation dose response, primary screen (AID 588689). In kind it is functional.
Another assay concerns the target Cytochrome P450 2D6 (Homo sapiens, UniProt P10635).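 Also: CYP2D6 member of a cytochrome P450 panel assay.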
For another assay, the target named is T1, Aminopeptidase N (Plasmodium falciparum FcB1/Columbia, UniProt O96935).
T1 sequence (O96935 whole entry): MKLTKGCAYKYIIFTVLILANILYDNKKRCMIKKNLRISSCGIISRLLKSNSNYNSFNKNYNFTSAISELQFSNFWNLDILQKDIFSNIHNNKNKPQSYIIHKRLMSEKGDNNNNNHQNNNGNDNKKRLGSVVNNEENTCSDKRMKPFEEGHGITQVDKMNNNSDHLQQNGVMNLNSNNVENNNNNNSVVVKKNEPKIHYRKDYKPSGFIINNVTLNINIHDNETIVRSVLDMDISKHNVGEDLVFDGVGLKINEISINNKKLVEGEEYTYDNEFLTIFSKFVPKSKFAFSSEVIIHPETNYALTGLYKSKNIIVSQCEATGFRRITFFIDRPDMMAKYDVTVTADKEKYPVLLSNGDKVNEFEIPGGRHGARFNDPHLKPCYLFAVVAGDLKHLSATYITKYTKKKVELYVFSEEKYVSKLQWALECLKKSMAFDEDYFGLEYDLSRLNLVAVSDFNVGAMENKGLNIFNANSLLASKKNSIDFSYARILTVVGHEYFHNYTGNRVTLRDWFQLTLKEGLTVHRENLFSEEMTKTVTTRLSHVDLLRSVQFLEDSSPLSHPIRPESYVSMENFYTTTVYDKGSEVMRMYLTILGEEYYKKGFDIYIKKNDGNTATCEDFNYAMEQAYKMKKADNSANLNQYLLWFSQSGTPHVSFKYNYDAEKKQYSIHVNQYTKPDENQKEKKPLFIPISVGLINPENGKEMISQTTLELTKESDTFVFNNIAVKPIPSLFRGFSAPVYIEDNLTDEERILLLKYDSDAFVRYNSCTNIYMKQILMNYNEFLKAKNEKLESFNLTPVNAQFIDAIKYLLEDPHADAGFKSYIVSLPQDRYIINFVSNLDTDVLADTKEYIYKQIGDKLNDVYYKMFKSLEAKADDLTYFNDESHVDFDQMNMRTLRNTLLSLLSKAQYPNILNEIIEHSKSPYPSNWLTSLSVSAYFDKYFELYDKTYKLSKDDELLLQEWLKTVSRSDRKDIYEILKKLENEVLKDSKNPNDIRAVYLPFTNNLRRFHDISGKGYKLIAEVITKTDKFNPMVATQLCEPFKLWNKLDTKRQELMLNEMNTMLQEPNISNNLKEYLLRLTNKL
Description: malaria alanyl aminopeptidase activity blockers – biochemical, fluorogenic H-Leu-NHMec substrate, 1536-well (AID 1445). Also on record: species or system Plasmodium falciparum 3D7, 3D7.

A further assay addresses T2, Cytochrome P450 1A2 (Homo sapiens, UniProt P05177).
T2 sequence (P05177 whole entry): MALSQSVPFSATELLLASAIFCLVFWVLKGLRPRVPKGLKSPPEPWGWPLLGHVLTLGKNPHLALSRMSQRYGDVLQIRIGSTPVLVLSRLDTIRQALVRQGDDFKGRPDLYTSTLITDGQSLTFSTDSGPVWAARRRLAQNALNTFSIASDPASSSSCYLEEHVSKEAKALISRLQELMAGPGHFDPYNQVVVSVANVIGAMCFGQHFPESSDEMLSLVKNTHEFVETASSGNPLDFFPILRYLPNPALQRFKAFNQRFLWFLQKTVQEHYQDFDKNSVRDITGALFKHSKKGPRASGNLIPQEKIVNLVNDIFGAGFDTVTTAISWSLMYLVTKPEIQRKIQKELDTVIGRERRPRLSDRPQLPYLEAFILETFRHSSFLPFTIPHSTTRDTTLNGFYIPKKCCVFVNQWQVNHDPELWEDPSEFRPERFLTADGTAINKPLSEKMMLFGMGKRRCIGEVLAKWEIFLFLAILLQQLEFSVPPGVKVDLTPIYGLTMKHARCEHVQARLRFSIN

The next assay is described as follows: cells. In kind it is functional.
A short description of assay [1]: THP-1 cell cytotoxicity, dose response, cytotoxicity control for non-replicating M. tuberculosis project (AID 489025). It counts as functional.
Assay [2] addresses T3, Replicative DNA helicase DnaB (Mycobacterium tuberculosis, UniProt P9WMR3).
T3 sequence (P9WMR3 whole entry): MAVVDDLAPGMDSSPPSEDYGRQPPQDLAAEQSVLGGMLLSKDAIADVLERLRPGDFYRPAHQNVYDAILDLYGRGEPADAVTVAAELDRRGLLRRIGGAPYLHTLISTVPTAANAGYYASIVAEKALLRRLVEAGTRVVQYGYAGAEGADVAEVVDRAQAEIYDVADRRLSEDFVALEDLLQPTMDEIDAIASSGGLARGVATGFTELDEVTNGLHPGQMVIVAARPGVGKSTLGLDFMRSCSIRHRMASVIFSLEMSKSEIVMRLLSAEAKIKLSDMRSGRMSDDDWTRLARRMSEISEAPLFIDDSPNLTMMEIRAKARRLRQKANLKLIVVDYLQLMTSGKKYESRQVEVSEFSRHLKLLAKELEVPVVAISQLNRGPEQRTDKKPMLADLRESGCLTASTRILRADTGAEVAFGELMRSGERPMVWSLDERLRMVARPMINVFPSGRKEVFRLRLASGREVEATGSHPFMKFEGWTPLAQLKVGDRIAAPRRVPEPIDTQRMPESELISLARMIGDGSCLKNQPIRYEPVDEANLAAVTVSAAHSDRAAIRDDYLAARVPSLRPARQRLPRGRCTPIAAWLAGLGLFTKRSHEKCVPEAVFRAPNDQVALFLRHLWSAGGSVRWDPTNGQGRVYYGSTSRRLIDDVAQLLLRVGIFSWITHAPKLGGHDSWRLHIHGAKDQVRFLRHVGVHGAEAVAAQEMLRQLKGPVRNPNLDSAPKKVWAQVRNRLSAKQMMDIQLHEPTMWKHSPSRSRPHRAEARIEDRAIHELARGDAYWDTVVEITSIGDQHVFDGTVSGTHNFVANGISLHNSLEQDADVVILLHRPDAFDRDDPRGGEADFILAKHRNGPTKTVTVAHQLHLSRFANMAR
Description: DnaB intein splicing inhibitors, dose response, biochemical, cell-free fluorescence (AID 449749). In kind it is functional.

Another assay addresses T4, Protein RecA (Mycobacterium tuberculosis, UniProt P9WHJ3).
T4 sequence (P9WHJ3 whole entry): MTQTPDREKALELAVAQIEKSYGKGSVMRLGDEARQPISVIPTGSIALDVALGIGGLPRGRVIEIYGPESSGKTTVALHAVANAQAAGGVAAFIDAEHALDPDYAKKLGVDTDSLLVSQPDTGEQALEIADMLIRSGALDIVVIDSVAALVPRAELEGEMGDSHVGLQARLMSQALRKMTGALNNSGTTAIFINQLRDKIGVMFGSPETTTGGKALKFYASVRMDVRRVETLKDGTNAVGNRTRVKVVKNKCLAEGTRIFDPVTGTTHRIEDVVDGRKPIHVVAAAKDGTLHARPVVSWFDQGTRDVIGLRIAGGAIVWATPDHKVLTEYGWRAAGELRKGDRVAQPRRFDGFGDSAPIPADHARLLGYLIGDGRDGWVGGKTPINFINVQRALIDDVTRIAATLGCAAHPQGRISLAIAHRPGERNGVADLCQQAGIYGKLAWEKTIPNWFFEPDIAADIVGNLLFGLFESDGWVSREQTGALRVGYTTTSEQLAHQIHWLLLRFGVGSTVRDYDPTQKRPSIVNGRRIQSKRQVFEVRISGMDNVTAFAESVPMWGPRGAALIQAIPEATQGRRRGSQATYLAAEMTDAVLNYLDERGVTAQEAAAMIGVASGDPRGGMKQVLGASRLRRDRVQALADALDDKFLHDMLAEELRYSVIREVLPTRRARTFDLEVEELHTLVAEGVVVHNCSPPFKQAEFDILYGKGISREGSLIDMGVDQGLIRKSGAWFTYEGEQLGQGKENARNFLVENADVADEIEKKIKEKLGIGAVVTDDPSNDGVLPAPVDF
Description: Fluorescence Cell-Free Homogeneous Dose Retest to Identify Inhibitors of RecA-Intein Splicing Activity. [Related pubchem assays (depositor defined):AID2097, AID2223, AID489010, AID492950]. It counts as functional.

The target of a further assay is Large T antigen (Simian virus 40, UniProt P03070). It counts as functional, Betapolyomavirus macacae.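 Also: Confirmatory-stage PubChem screen for compounds that inhibit SV40 T antigen.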
The nature of assay [3]: NIH-3T3 fibroblast cytotoxicity, dose response, cytotoxicity control, cell-based, fluorescence, Alamar Blue, secondary assay (AID 2327).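 Also: NIH-3T3 mouse fibroblasts cultured with fluconazole at 8 µg/mL.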 It counts as functional. A general note: Alamar Blue is a resazurin reagent that responds to reducing activity.
A short description of assay [4]: fluconazole-exposed Candida albicans growth modulators – fluorescence, retest, confirmation (AID 2467). It counts as functional, cell-based.
For assay [5], the target named is DNA dC->dU-editing enzyme APOBEC-3A (Homo sapiens, UniProt P31941). Put plainly: Dose Response confirmation of small molecule APOBEC3A DNA Deaminase Inhibitors via a fluorescence-based single-stranded DNA deaminase assay. [Related pubchem assays (depositor defined):AID493011, AID493024]. It counts as functional.
The target in the next assay is T5, Leucine aminopeptidase (Plasmodium falciparum 3D7, UniProt Q8IL11).
T5 sequence (Q8IL11 whole entry): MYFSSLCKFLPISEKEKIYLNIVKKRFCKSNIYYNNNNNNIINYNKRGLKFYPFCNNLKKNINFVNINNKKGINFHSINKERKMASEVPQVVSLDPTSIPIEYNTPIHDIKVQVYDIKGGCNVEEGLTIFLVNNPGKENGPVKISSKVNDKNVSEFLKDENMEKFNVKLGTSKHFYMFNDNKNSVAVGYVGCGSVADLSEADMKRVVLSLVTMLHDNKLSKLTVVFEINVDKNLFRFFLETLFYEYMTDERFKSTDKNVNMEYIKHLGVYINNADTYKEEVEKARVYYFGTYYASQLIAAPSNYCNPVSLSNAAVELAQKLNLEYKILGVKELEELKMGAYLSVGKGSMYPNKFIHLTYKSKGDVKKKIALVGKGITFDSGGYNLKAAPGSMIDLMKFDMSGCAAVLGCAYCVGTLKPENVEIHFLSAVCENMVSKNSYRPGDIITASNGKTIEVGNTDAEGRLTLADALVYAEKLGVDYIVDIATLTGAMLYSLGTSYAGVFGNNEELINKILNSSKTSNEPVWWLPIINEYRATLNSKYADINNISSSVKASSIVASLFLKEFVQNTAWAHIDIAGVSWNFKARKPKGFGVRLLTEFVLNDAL
Put plainly: P. falciparum M17LAP inhibitors, primary screen, biochemical, fluorogenic H-Leu-NHMec substrate, 1536-well (AID 1619). It counts as functional.

Assay [6] has as its target T6, Rac GTPase-activating protein 1 (Homo sapiens, UniProt Q9H0H5).
T6 sequence (Q9H0H5 whole entry): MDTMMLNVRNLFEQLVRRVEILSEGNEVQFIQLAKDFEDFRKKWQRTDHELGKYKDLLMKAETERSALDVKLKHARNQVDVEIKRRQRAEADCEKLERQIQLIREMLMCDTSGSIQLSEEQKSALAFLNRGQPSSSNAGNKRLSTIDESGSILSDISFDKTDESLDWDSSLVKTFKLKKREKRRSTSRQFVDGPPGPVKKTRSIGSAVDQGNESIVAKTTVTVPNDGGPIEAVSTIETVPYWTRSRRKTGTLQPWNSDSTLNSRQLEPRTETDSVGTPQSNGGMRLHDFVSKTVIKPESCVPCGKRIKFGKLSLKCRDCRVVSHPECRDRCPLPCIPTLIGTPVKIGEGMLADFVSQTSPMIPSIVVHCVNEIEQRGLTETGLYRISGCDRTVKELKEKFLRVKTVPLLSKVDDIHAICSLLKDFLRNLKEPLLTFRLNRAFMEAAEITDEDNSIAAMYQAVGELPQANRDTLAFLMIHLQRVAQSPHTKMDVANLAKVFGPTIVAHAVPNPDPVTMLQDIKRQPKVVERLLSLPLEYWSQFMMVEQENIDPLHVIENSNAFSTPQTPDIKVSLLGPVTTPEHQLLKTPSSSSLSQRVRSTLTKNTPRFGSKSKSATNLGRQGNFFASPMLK
Put plainly: blockers of MgcRacGAP-driven Rac1 GTP hydrolysis – biochemical, ADP Hunter fluorescence, primary and confirmatory, confirmation (AID 624330). It counts as functional.

Assay [7] in a line: antiviral protection against BTV-induced cell death – arbovirus, BSR cells, confirmation (AID 1250).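 Also: protection from viral cytopathic effect measured as cell viability by ATP luminescence.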 It counts as functional.

Each structure is given as a SMILES string. Activity calls are given as the source filed them.

Sequence of Large T antigen (P03070 whole entry): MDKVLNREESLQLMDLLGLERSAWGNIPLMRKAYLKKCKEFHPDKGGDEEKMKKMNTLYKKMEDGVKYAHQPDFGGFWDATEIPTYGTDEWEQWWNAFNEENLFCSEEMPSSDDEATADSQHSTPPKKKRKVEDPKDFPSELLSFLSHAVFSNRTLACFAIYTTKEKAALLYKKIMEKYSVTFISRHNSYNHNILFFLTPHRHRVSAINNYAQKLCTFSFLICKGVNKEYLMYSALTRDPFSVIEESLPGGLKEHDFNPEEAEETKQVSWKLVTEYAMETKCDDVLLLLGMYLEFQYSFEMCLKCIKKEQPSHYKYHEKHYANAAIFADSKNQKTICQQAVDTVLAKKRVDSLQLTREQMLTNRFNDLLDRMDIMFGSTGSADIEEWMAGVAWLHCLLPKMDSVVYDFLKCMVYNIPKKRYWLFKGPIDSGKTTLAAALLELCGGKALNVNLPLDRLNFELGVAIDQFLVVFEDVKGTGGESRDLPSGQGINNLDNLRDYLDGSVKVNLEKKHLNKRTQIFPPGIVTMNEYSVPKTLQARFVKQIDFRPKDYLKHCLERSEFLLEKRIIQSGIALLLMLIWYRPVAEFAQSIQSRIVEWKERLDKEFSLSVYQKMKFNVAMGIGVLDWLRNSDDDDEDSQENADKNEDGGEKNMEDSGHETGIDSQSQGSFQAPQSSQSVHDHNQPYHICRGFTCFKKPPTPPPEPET
Sequence of Cytochrome P450 2D6 (P10635 whole entry): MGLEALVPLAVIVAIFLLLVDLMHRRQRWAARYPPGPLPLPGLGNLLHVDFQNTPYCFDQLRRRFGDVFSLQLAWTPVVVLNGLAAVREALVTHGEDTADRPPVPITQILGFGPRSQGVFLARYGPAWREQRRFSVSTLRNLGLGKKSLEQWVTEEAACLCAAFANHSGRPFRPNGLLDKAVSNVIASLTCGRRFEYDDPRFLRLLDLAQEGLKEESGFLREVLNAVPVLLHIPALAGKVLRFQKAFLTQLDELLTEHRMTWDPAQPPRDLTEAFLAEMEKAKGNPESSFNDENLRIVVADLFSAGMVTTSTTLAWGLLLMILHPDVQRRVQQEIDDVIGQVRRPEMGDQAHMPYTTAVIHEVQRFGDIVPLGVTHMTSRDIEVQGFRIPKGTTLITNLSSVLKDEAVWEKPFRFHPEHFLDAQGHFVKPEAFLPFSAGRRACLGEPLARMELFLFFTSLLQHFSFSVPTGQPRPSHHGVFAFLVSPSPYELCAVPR
Sequence of DNA dC->dU-editing enzyme APOBEC-3A (P31941 whole entry): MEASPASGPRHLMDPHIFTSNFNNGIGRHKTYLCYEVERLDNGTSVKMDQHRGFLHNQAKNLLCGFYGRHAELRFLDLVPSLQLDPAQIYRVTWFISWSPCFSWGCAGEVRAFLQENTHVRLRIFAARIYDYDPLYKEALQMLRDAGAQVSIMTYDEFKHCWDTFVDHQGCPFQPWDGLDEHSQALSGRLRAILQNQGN
Sequence of Genome polyprotein (P29990 2492-3391 limits assumed): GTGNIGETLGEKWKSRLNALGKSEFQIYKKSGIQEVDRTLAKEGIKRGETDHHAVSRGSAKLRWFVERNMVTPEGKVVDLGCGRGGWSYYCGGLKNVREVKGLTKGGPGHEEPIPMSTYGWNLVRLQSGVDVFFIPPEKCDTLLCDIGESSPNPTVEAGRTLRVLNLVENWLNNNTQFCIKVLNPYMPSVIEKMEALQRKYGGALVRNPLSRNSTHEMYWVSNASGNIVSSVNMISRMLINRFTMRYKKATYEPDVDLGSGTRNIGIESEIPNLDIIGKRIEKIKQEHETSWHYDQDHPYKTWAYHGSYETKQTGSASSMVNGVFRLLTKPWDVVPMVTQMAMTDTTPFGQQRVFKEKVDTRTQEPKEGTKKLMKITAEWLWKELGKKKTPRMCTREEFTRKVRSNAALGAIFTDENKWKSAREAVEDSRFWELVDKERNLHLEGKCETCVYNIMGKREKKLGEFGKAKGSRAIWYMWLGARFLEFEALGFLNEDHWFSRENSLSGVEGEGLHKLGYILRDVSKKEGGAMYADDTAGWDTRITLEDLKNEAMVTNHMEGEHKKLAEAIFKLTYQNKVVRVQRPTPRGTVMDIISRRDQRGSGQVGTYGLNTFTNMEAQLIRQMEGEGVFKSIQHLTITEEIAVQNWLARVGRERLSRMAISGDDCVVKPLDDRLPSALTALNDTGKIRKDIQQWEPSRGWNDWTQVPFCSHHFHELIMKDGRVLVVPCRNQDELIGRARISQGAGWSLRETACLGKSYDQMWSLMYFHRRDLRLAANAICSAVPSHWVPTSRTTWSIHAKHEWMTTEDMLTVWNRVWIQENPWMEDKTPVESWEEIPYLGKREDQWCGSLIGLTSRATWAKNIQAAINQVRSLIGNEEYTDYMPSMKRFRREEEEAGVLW

As usually defined, the IC50 is the midpoint of a concentration-inhibition curve. Usually AC50 stands for the concentration giving half of the maximal activity seen. Turning to `O=C1Nc2ccc(F)cc2C12Nc1ccccc1-c1nnc(SCc3ccccc3F)nc1O2` (stereo unspecified), the IC50 at Genome polyprotein was 30.8 µM (active); on Aminopeptidase N, 68.4 µM (active). Also, the half-maximal activity concentration (AC50) was 14.1 µM (inconclusive) at Cytochrome P450 2D6 and 10 µM (inconclusive) at Cytochrome P450 1A2.

For orientation: CC50 means the concentration giving 50% cytotoxicity. A word on the EC50: it is the concentration that produces a half-maximal response. With `COC(=O)c1ccccc1Sc1ncnc2onc(C)c12`, in the assay “cells”, the IC50 was 10.9 µM (active). Further, in assay [1], the CC50 is > 40 µM (active). The AC50 in assay [2] is 12.4 µM (active). Further, the EC50 on Protein RecA was 9.04 µM (active).

`COc1cc(/C=N/Nc2ccnc(O)n2)ccc1O`: the half-maximal inhibitory concentration (IC50) on Large T antigen was 6.16 µM (active).

Turning to `O=C1NC2(CCC3(CC2)OCCO3)NN1c1ccc(Cl)cc1`, the results for the EC50 in [3] and in assay [4] were > 150 µM (inactive) and 1.64 µM (active), respectively. In addition, in [1], the CC50 was > 40 µM (active).

On to `CCC(Oc1ccccc1OC)C(=O)Nc1ccc2c(c1)OCCO2` (stereo unspecified), for which the IC50 in assay [5] was 6.09 µM (active).

With `Cc1nc(N)sc1N=Nc1c(C)n(C)n(-c2ccccc2)c1=O`, the IC50 on Large T antigen was 17.3 µM (active).

For `COc1cc(/C=C2\C(=O)NC(=O)N(CCc3ccc(F)cc3)C2=O)ccc1O`, the values for the IC50 at Leucine aminopeptidase and at Large T antigen were 15.8 µM (active) and 20 µM (active), respectively.

Turning to `CN(C)c1ccc(NC(=O)CN2C(=O)CN=C(c3ccccc3)c3ccccc32)cc1`, the figures for the IC50 (on Large T antigen; in assay [6]) were 11.9 µM (active) and 72 µM (active), respectively.

Take `O=C1NC(=O)N(Cc2ccccc2)C(=O)/C1=C/NNC(=O)c1ccccc1O`: the IC50 at Leucine aminopeptidase was 62.3 µM (active); in assay [7], 97.4 µM (active); on Aminopeptidase N, 17.3 µM (active).
